Measured values reported in patent US12673022B2, “Drug delivery system using solution” (Kyoto University, priority 2018, dated 2026).

Test system: human DMD exon 45 knock-in/mouse Dmd exon 44 knock-out mouse tibialis anterior muscle
Assay: Exon skipping efficiency in skeletal muscle (human DMD exon 45)
Format: in vivo
Conditions: Example 7; administration solution 3: 25 mM or 250 mM 6-phospho-D-gluconic acid or N-carbamyl-L-aspartic acid, 158 mM sodium chloride, hEx45 #1 and #23 gRNA/Cas9; 50 μL once, day 7; Dunnett's test; FIG. 11
Method: Cas9 protein (120 μg), hDMD Ex45 #1 gRNA (15 μg), hDMD Ex45 #23 gRNA (15 μg) and 10×PBS (25 μL) were mixed and a 500 mM compound stock solution was added, and then, 500 mM compound stock solution was added to the mixture so as to obtain final concentrations: […], […], 300 ng/μL hDMD Ex45 #23 gRNA, 158 mM sodium chloride, 25 mM or 250 mM compound and diluted with UltraPure DNase/RNase-Free Distilled Water up to a liquid volume of 250 μL and incubated at normal temperature for 15 minutes. The Cas9 protein herein was subjected to buffer replacement with 250 mM sodium chloride by use of Amicon® Ultra 2 mL Centrifugal Filters and then put in use […]
To the tibialis anterior muscle of each of 4 weeks-old male human DMD exon 45 knock-in/mouse Dmd exon 44 knock-out mice, administration solution 3 (50 μL) was administered once. […] Subsequently, a product with skipping was quantitatively measured by use of FastStart Universal Probe Master (Roche), the primers represented by SEQ ID Nos. 14 and 15 and the probe of sequence 16. The product without skipping was quantitatively measured by use of FastStart Universal Probe Master (Roche), the primers represented by SEQ ID Nos. 17 and 18 and the probe of sequence 19. Each of the PCR products was measured by use of ViiA7™ real time PCR system. […]

NC(=O)N[C@@H](CC(=O)O)C(=O)O [N-Carbamyl-L-aspartic acid]
Exon skipping activity (skipping efficiency %) compared to 250 mM GABA: statistically significant results compared to 250 mM GABA
